Laboratory results as given in patent publication EP0823908B1, “PYRIDO[2,3-d]PYRIMIDINES FOR INHIBITING PROTEIN TYROSINE KINASE MEDIATED [sequence] PROLIFERATION” (Warner-Lambert Company LLC, priority 1995, dated 1996).
Read-outs that look alike come from different tables or passages of the source.

Experiments:
[1] = target: T1, Human EGF receptor tyrosine kinase (Homo sapiens, UniProt P00533); assay: EGF receptor tyrosine kinase enzyme assay (substrate peptide phosphorylation); format: biochemical; conditions: read-out: EGF-FL IC50
T1 construct: Human EGF receptor tyrosine kinase was isolated from A431 epidermoid carcinoma cells; endogenous in cells; host or cells: A431 epidermoid carcinoma cells
T1 sequence (P00533 25-1210): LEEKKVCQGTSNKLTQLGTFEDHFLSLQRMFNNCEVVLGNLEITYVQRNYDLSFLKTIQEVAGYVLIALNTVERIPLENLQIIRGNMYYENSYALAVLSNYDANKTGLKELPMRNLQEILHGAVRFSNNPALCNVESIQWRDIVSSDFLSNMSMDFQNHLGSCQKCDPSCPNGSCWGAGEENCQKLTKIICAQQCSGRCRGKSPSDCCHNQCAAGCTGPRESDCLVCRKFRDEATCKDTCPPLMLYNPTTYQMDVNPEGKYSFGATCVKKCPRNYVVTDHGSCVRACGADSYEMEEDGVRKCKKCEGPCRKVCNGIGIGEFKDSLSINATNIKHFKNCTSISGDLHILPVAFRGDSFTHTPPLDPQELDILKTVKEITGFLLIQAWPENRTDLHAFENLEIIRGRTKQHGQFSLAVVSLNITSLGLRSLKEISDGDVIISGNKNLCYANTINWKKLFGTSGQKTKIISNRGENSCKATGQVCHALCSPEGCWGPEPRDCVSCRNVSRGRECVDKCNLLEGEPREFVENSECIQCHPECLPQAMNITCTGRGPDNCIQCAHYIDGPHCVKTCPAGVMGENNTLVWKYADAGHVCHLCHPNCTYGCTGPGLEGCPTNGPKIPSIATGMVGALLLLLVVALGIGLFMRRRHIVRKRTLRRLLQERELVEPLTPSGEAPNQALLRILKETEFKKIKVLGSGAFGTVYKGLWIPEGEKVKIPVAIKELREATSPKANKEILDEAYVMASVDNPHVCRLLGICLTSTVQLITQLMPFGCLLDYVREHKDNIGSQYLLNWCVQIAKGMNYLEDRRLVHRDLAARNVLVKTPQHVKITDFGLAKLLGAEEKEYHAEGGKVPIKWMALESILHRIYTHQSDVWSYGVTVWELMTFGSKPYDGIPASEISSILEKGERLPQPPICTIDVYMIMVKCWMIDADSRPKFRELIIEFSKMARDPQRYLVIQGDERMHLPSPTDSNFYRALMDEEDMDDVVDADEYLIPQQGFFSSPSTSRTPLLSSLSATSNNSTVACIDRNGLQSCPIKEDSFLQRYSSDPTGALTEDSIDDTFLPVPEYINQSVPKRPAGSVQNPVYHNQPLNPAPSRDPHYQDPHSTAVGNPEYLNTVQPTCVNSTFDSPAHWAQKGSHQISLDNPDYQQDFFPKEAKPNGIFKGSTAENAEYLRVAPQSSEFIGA

PDGF receptor = PDGF receptor autophosphorylation in rat aorta smooth muscle cells; format: cell-based; conditions: PDGF-BB 30 ng/mL for 5 minutes after 2 hours with compound; read-out: Inhibition of PDGF-Stimulated Receptor Auto Phosphorylation in Rat Aortic Smooth Muscle Cells (IC50)
Experimental: Rat aorta smooth muscle cells (RASMC) were isolated from the thoracic aorta of rats and explanted according to the method of Ross, J. Cell. Biol., 30:172-186 (1971). Cells were grown in Dulbecco's modified Eagle's medium (DMEM, Gibco) containing 10% fetal calf serum (FBS, Hyclone, Logan, Utah), 1% glutamine (Gibco) and 1% penicillin/streptomycin (Gibco). Cells were identified as smooth muscle cells by their "hill and valley" growth pattern and by fluorescent staining with a monoclonal antibody specific for SMC ∝-actin (Sigma). RASMC were used between passages 5 and 20 for all experiments. Test compounds were prepared in dimethylsulfoxide (DMSO) in order to achieve consistency in the vehicle and to ensure compound solubility. Appropriate DMSO controls were simultaneously evaluated with the test compounds.
RASMC were grown to confluency in 100 mm dishes. Growth medium was removed and replaced with serum-free medium and cells were incubated at 37°C for an additional 24 hours. Test compounds were then added directly to the medium and cells incubated for an additional 2 hours. After 2 hours, PDGF-BB was added at a final concentration of 30 ng/mL for 5 minutes at 37°C to stimulated autophosphorylation of the PDGF receptor. Following growth factor treatment, the medium was removed, and cells were washed with cold phosphate-buffered saline and immediately lysed with 1 mL of lysis buffer (50 mM HEPES[pH 7.5], 150 mM NaCl, 10% glycerol, 1% Triton X-100, 1 mM EDTA, 1 mMEGTA, 50 mM NaF, 1 mM sodium orthovanadate, 30 mM p-nitrophenyl phosphate, 10 mM sodium pyrophosphate, 1 mM phenylmethyl sulfonyl fluoride, 10 µg/mL aprotinin, and 10 µg/mL leupeptin). Lysates were centrifuged at 10,000 × g for 10 minutes. […] Following the incubation, protein-A-sepharose beads were added for 2 hours with continuous mixing, and immune complexes bound to the beads washed four times with 1 mL lysis wash buffer. Immune complexes were solubilized in 30 µL of Laemmli sample buffer and electrophoresed in 4-20% SDS polyacrylamide gels. Following electrophoresis, separated proteins were transferred to nitrocellulose and immunoblotted with anti-phosphotyrosine antiserum. […] IC50 values were generated from the densitometric data.

C-src kinase = target: T2, C-src kinase (Homo sapiens, UniProt P12931); assay: C-src kinase assay (poly GluTyr substrate); format: biochemical; conditions: read-out: C-src TK IC50
T2 construct: made in house; host or cells: baculovirus infected insect cells
T2 sequence (P12931 whole entry): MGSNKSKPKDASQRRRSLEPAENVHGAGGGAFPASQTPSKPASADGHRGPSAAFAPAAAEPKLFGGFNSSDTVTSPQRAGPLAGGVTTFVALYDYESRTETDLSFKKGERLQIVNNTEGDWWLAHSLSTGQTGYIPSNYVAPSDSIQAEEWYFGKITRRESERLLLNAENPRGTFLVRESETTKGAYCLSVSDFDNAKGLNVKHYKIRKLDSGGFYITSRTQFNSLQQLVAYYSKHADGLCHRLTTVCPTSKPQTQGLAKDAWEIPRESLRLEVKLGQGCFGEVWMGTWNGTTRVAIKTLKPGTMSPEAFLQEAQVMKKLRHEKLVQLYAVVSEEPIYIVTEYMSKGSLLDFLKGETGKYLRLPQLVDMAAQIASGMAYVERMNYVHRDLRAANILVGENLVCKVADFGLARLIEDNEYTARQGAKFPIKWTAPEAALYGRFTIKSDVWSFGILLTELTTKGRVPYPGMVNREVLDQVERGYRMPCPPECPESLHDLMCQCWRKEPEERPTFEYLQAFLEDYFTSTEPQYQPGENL

HCT-8 = assay: Soft agar colony formation, human colon adenocarcinoma cells; format: cell-based; conditions: HCT-8, 336 h, read-out: Inhibition of Human Colon Adenocarcinoma IC50, HCT-8
Experimental: (§1) Three such human cell lines were identified as HCT-8, SW-620, and HT-29. In a typical assay, the cells are suspended in 0.3% soft agar containing an invention compound at various concentration levels, and are plated into six-well plates, each plate containing a 1% agar plug. The cell plates are incubated at 37°C in a humidified carbon dioxide (5%) incubator, generally for 2 weeks. At the end of the incubation period, colonies of cells are detected by staining the wells with 1 mg/mL of p-iodonitrotetrazolium violet. The cells are counted on an optical colony counter. […] TABLE III. Inhibition of Human Colon Adenocarcinoma IC50 (µM)

[2] = target: T3, mouse PDGF-β receptor tyrosine kinase (Mus musculus, UniProt P05622); assay: PDGF receptor tyrosine kinase assay (32P incorporation into glutamate-tyrosine co-polymer); format: biochemical; conditions: read-out: PDGFr-TK IC50
T3 construct: amplify a fragment of DNA that codes for the intracellular tyrosine kinase domain; made in house; host or cells: SF9 insect cells (baculovirus)
T3 sequence (P05622 599-961 limits assumed): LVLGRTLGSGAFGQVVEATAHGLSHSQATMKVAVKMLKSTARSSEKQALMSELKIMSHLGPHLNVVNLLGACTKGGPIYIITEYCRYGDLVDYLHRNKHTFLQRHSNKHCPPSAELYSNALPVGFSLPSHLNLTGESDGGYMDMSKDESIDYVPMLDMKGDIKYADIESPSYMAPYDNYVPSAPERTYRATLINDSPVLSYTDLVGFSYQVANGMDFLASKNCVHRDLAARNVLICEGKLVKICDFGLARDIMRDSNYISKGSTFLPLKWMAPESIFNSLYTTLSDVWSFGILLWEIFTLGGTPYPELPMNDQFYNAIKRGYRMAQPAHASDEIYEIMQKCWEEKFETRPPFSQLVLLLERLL
In short: (§2)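 32P transfer from γ32P-ATP (50 µM ATP) to poly(Glu,Tyr) 4:1 was measured over 10 min at 25°C and counted after TCA precipitation onto filters, minus the no-enzyme background. Enzyme was baculovirus/SF9 lysate of the kinase domain, preincubated 10 min with inhibitor in Hepes pH 7.0, MnCl2, vanadate.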

[3] = target: T4, human FGF-1 (flg) receptor tyrosine kinase (Homo sapiens, UniProt P11362); assay: FGF receptor tyrosine kinase assay (32P incorporation into glutamate-tyrosine co-polymer); format: biochemical
T4 construct: amplify a fragment of DNA that codes for the intracellular tyrosine kinase domain; made in house; host or cells: SF9 insect cells (baculovirus)
T4 sequence (P11362 478-767 limits assumed): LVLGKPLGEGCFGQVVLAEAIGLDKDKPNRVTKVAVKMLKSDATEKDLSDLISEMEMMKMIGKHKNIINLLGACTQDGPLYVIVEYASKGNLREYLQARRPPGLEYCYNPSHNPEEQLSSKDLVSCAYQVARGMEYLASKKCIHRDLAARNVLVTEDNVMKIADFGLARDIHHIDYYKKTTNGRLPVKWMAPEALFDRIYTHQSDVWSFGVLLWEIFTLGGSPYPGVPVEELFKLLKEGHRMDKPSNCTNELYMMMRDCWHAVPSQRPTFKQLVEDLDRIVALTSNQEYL
In short: as §2

SW-620 = assay: Soft agar colony formation, human colon adenocarcinoma cells; format: cell-based; conditions: SW-620, 336 h, colony formation in 0.3% soft agar, generally 2 weeks, read-out: Inhibition of Human Colon Adenocarcinoma IC50, SW-620
Experimental: as §1

HT-29 = assay: as above; format: cell-based; conditions: HT-29, 336 h, colony formation in 0.3% soft agar, generally 2 weeks, read-out: Inhibition of Human Colon Adenocarcinoma IC50, HT-29
Experimental: as §1

transplanted tumors = assay: Transplanted tumor assay; format: in vivo; conditions: F1 hybrid mice; compound generally by infusion by tail tether
Experimental: F1 hybrid mice were used in the assay. The mice receive ascites fluid or dilutions of tumor brei on Day 0. A sample of the inocula is incubated in thioglycolate media as a check for gross contamination of the tumor material. After all test animals are inoculated with tumors, they are randomized for the assay. Control animals receive vehicle, while treated animals receive an invention compound dissolved in the vehicle, generally by infusion by tail tether. All animals are monitored daily for acute toxicity and other clinical signs. Survival is checked daily for the control group and treated group. The assay generally is continued for 60 days, at which time all surviving animals are euthanized.

[4] = colony formation in 0.3% soft agar, generally 2 weeks

SMILES	IC50 [1]	IC50 (PDGF receptor)	IC50 (C-src kinase)	IC50 (HCT-8)	IC50 [2]	IC50 [3]	IC50 (SW-620)	IC50 (HT-29)	IC50 (HCT-8; [4])	IC50 ([3]; read-out: FGFr-TK IC50)	life span of animals infected with transplanted tumors (transplanted tumors)
Cn1c(=O)c(-c2c(Cl)cccc2Cl)cc2cnc(N)nc21 [Example 12, 2-Amino-6-(2,6-dichlorophenyl)-8-methyl-pyrido[2,3-d]-pyrimidin-7(8H)-one]	5600 nM	9400 nM									
CN1CCN(CCCNc2ncc3cc(-c4c(Cl)cccc4Cl)c(=O)n(C)c3n2)CC1 [Example 38, 6-(2,6-Dichlorophenyl)-8-methyl-2-[3-(4-methylpiperazin-1-yl)-propylamino]-8H-pyrido[2,3-d]pyrimidin-7-one]	8700 nM		3 nM	3150 nM	1090 nM	230 nM					
Cn1c(=O)c(-c2c(Cl)cccc2Cl)cc2cnc(Nc3cccc(Br)c3)nc21 [Example 55, 2-(3-Bromophenylamino)-6-(2,6-dichlorophenyl)-8-methyl-8H-pyrido[2,3-d]pyrimidin-7-one]		60 nM	59 nM		1800 nM		120 nM	430 nM	110 nM	2200 nM	
Cn1c(=O)c(-c2c(Cl)cccc2Cl)cc2cnc(Nc3ccc(Cl)cc3)nc21 [Example 56, 2-(4-Chlorophenylamino)-6-(2,6-dichlorophenyl)-8-methyl-8H-pyrido[2,3-d]pyrimidin-7-one]			70 nM		1680 nM		1100 nM			3010 nM	
Cn1c(=O)c(-c2c(Cl)cccc2Cl)cc2cnc(Nc3ccc4c(c3)OCO4)nc21 [Example 57, 2-(Benzo[1,3]dioxol-5-ylamino)-6-(2,6-dichlorophenyl)-8-methyl-8H-pyrido[2,3-d]pyrimidin-7-one]	89 nM		50 nM		440 nM		520 nM	740 nM	250 nM	646 nM	
Cn1c(=O)c(-c2c(Cl)cccc2Cl)cc2cnc(Nc3ccncc3)nc21 [Example 58, 6-(2,6-Dichlorophenyl)-8-methyl-2-(pyridin-4-ylamino)-8H-pyrido[2,3-d]pyrimidin-7-one]	119 nM	13 nM	23 nM		71 nM		130 nM	380 nM	170 nM	159 nM	
Cc1ccc(Nc2ncc3cc(-c4c(Cl)cccc4Cl)c(=O)n(C)c3n2)cc1 [Example 63, 6-(2,6-Dichlorophenyl)-8-methyl-2-p-tolylamino-8H-pyrido[2,3-d]pyrimidin-7-one]	140 nM				1010 nM				1000 nM	1050 nM	
CCn1c(=O)c(-c2c(Cl)cccc2Cl)cc2cnc(Nc3ccccc3)nc21 [Example 69, 6-(2,6-Dichloropherlyl)-8-ethyl-2-pherlylamino-8H-pyrido[2,3-d]pyrimidin-7-one]	120 nM		79 nM		593 nM			1110 nM		214 nM	
CCn1c(=O)c(-c2c(Cl)cccc2Cl)cc2cnc(NCCCN3CCN(C)CC3)nc21 [Example 70, 6-(2,6-Dichlorophenyl)-8-ethyl-2-[3-(4-methyl-piperazin-1-yl)-propylamino]-8H-pyrido[2,3-d]pyrimidin-7-one]			70 nM		475 nM			3500 nM		109 nM	
CCN(CC)CCOc1ccc(Nc2ncc3cc(-c4c(Cl)cccc4Cl)c(=O)n(C)c3n2)cc1 [Example 80, 6-(2,6-Dichlorophenyl)-2-[4-(2-diethylaminoethoxy)-phenylamino]-8-methyl-8H-pyrido[2,3-d]pyrimidin-7-one]											increased the life span
